Measured values published in ChEMBL document CHEMBL1157650, “Synthesis and bradykinin inhibitory activity of novel non-peptide compounds, and evaluation of in vivo analgesic activity” (2010).
Activity calls are given as the source filed them. The calls are words filed in the database; no cut-off is given here.

System: Rattus norvegicus
Assay: Antinociceptive activity against formalin-induced pain in rat assessed as time spent in licking, shaking or biting paw in early phase at 60 ug, sc (Rvb=47.05 +/- 8.53 sec)
Format: functional
Details: not given

In the case of `CC(CCc1ccccc1)NC(=O)/C=C\C(=O)N1CCN(C(c2ccc(F)cc2)c2ccc(F)cc2)CC1` (centres undefined), the Activity is reported as 14.82 s.

System: Rattus norvegicus
Assay: Analgesic activity in S1/S2 spinal nerve ligated rat model of neuropathic pain assessed as suppression of warm water-induced allodynia at 60 mg/kg, ip
Format: functional, organism-based
Design: dose 60 mg/kg
Details: not given

For `CC(CCc1ccccc1)NC(=O)/C=C\C(=O)N1CCN(C(c2ccc(F)cc2)c2ccc(F)cc2)CC1` (centres undefined), the Activity was “Active”.

System: Rattus norvegicus
Assay: Analgesic activity in S1/S2 spinal nerve ligated rat model of neuropathic pain assessed as suppression of cold water-induced allodynia at 60 mg/kg, ip
Format: functional, organism-based
Design: dose 60 mg/kg
Details: not given

In the case of `CC(CCc1ccccc1)NC(=O)/C=C\C(=O)N1CCN(C(c2ccc(F)cc2)c2ccc(F)cc2)CC1` (centres undefined), the Activity is reported as “Active”.

System: Rattus norvegicus
Assay: Analgesic activity in S1/S2 spinal nerve ligated rat model of neuropathic pain assessed as suppression of mechanical stimuli-induced allodynia at 60 mg/kg, ip
Format: functional, organism-based
Design: dose 60 mg/kg
Details: not given

In the case of `CC(CCc1ccccc1)NC(=O)/C=C\C(=O)N1CCN(C(c2ccc(F)cc2)c2ccc(F)cc2)CC1` (centres undefined), the Activity is reported as “inactive”.

System: Rattus norvegicus
Assay: Antinociceptive activity against formalin-induced pain in rat assessed as time spent in licking, shaking or biting paw in late phase at 60 ug, sc (Rvb=334.21 +/- 51.10 sec)
Format: functional
Details: not given

Compound `CC(CCc1ccccc1)NC(=O)/C=C\C(=O)N1CCN(C(c2ccc(F)cc2)c2ccc(F)cc2)CC1` (centres undefined) has an Activity of 129.31 s.

System: Ileum
Assay: Inhibition of bradykinin-induced Hartley guinea pig ileum contraction at 1 uM relative to control
Format: functional
Details: Cavia porcellus

Compared with `Cc1ccc(CNC(=O)CCC(=O)N2CCN(C(c3ccccc3)c3ccc(Cl)cc3)CC2)cc1` (centres undefined), `Cc1ccc(CNC(=O)CCC(=O)N2CCCN(C(c3ccccc3)c3ccc(Cl)cc3)CC2)cc1` (centres undefined) is lower in inhibition at 1 µM: 67.9% for the first, 67.7% for the second.

Going from `COc1cc(CNC(=O)CC(C)(C)CC(=O)N2CCN(C(c3ccccc3)c3ccc(Cl)cc3)CC2)cc(OC)c1OC` (centres undefined) to `COc1cc(CNC(=O)CCC(=O)N2CCN(C(c3ccccc3)c3ccc(Cl)cc3)CC2)cc(OC)c1OC` (centres undefined), the inhibition at 1 µM rises from 49.1% to 65.2%.

Going from `COc1ccc(CNC(=O)CCC(=O)N2CCN(C(c3ccccc3)c3ccc(Cl)cc3)CC2)cc1` (centres undefined) to `COc1ccc(CNC(=O)CCC(=O)N2CCCN(C(c3ccccc3)c3ccc(Cl)cc3)CC2)cc1` (centres undefined), the inhibition at 1 µM rises from 57.2% to 80.9%.

First: COc1ccc(CNC(=O)CC(C)CC(=O)N2CCN(C(c3ccccc3)c3ccc(Cl)cc3)CC2)cc1 (centres undefined)
Second: COc1ccc(CNC(=O)CC(C)CC(=O)N2CCCN(C(c3ccccc3)c3ccc(Cl)cc3)CC2)cc1 (centres undefined)
The inhibition at 1 µM of the first is lower: 64.9% for the first, 78.3% for the second.

First: CC(CC(=O)NC1CCCCC1)CC(=O)N1CCCN(C(c2ccccc2)c2ccc(Cl)cc2)CC1 (centres undefined)
Second: CC(CC(=O)NC1CCCCC1)CC(=O)N1CCN(C(c2ccccc2)c2ccc(Cl)cc2)CC1 (centres undefined)
The inhibition at 1 µM of the first is higher: 80.3% for the first, 60.8% for the second.

Going from `COc1cc(CNC(=O)CC(C)CC(=O)N2CCCN(C(c3ccccc3)c3ccc(Cl)cc3)CC2)cc(OC)c1OC` (centres undefined) to `COc1cc(CNC(=O)CC(C)CC(=O)N2CCN(C(c3ccccc3)c3ccc(Cl)cc3)CC2)cc(OC)c1OC` (centres undefined), the inhibition at 1 µM falls from 69.7% to 53.1%.

Compared with `O=C(/C=C\C(=O)N1CCCN(C(c2ccccc2)c2ccc(Cl)cc2)CC1)NC1CCCCC1` (centres undefined), `O=C(/C=C\C(=O)N1CCN(C(c2ccccc2)c2ccc(Cl)cc2)CC1)NC1CCCCC1` (centres undefined) is lower in inhibition at 1 µM: 66% for the first, 57.4% for the second.

Going from `CC(CC(=O)N(C)C)CC(=O)N1CCN(C(c2ccccc2)c2ccc(Cl)cc2)CC1` (centres undefined) to `Cc1ccc(CNC(=O)CC(C)CC(=O)N2CCN(C(c3ccccc3)c3ccc(Cl)cc3)CC2)cc1` (centres undefined), the inhibition at 1 µM rises from 36% to 64.8%.

Compared with `CC(C)(CC(=O)NC1CCCCC1)CC(=O)N1CCN(C(c2ccccc2)c2ccc(Cl)cc2)CC1` (centres undefined), `O=C(CCC(=O)N1CCN(C(c2ccccc2)c2ccc(Cl)cc2)CC1)NC1CCCCC1` (centres undefined) is higher in inhibition at 1 µM: 28% for the first, 79% for the second.

Going from `CC(CCc1ccccc1)NC(=O)/C=C\C(=O)N1CCN(C(c2ccc(F)cc2)c2ccc(F)cc2)CC1` (centres undefined) to `Cc1ccc(CNC(=O)/C=C\C(=O)N2CCN(C(c3ccc(F)cc3)c3ccc(F)cc3)CC2)cc1`, the inhibition at 1 µM falls from 86.6% to 84.5%.

First: O=C(CCC(=O)N1CCCN(C(c2ccccc2)c2ccc(Cl)cc2)CC1)NC1CCCCC1 (centres undefined)
Second: COc1cc(CNC(=O)CCC(=O)N2CCCN(C(c3ccccc3)c3ccc(Cl)cc3)CC2)cc(OC)c1OC (centres undefined)
The inhibition at 1 µM of the first is lower: 71.7% for the first, 72.6% for the second.

First: COc1ccc(CNC(=O)/C=C\C(=O)N2CCN(C(c3ccccc3)c3ccc(Cl)cc3)CC2)cc1 (centres undefined)
Second: COc1ccc(CNC(=O)/C=C\C(=O)N2CCCN(C(c3ccccc3)c3ccc(Cl)cc3)CC2)cc1 (centres undefined)
The inhibition at 1 µM of the first is lower: 74.1% for the first, 75% for the second.

First: COc1ccc(CNC(=O)/C=C\C(=O)N2CCN(C(c3ccc(F)cc3)c3ccc(F)cc3)CC2)cc1
Second: Cc1ccc(CNC(=O)/C=C\C(=O)N2CCN(C(c3ccccc3)c3ccc(Cl)cc3)CC2)cc1 (centres undefined)
The inhibition at 1 µM of the first is higher: 79.6% for the first, 78.5% for the second.

First: COc1ccc(CNC(=O)CC(C)(C)CC(=O)N2CCN(C(c3ccccc3)c3ccc(Cl)cc3)CC2)cc1 (centres undefined)
Second: Cc1ccc(CNC(=O)CC(C)(C)CC(=O)N2CCN(C(c3ccccc3)c3ccc(Cl)cc3)CC2)cc1 (centres undefined)
The inhibition at 1 µM of the first is lower: 31.6% for the first, 32.9% for the second.

First: CC(CCc1ccccc1)NC(=O)/C=C\C(=O)N1CCCN(C(c2ccccc2)c2ccc(Cl)cc2)CC1 (centres undefined)
Second: CC(CCc1ccccc1)NC(=O)/C=C\C(=O)N1CCN(C(c2ccccc2)c2ccccc2)CC1 (centres undefined)
The inhibition at 1 µM of the first is higher: 79.7% for the first, 77.5% for the second.

Compared with `Cc1ccc(CNC(=O)/C=C\C(=O)N2CCCN(C(c3ccccc3)c3ccc(Cl)cc3)CC2)cc1` (centres undefined), `Cc1ccc(CNC(=O)CC(C)CC(=O)N2CCCN(C(c3ccccc3)c3ccc(Cl)cc3)CC2)cc1` (centres undefined) is higher in inhibition at 1 µM: 79.4% for the first, 81.3% for the second.

Going from `O=C(/C=C\C(=O)N1CCN(C(c2ccc(F)cc2)c2ccc(F)cc2)CC1)NC1CCCCC1` to `N=C(N)NCCC[C@@H](N)C(=O)N[C@@H](CCCNC(=N)N)C(=O)N1CCC[C@H]1C(=O)N1C[C@H](O)C[C@H]1C(=O)NCC(=O)N[C@@H](Cc1cccs1)C(=O)N[C@@H](CO)C(=O)N1Cc2ccccc2C[C@@H]1C(=O)N1[C@H](C(=O)N[C@@H](CCCNC(=N)N)C(=O)O)C[C@@H]2CCCC[C@@H]21` [ICATIBANT], the inhibition at 1 µM rises from 65.4% to 100%.
